Legend:
adrenergic receptor α1B = molecular target: T1, adrenergic receptor α1B (Rattus norvegicus, UniProt P15823); test: radioligand binding to adrenergic receptor α1B ([3H] Prazosin); settings: 10 μM ligand
T1 construct: membrane species from rat liver (rat of Wistar breed) are prepared; from tissue; host or cells: rat (Wistar) liver membranes
T1 sequence (P15823 1-515): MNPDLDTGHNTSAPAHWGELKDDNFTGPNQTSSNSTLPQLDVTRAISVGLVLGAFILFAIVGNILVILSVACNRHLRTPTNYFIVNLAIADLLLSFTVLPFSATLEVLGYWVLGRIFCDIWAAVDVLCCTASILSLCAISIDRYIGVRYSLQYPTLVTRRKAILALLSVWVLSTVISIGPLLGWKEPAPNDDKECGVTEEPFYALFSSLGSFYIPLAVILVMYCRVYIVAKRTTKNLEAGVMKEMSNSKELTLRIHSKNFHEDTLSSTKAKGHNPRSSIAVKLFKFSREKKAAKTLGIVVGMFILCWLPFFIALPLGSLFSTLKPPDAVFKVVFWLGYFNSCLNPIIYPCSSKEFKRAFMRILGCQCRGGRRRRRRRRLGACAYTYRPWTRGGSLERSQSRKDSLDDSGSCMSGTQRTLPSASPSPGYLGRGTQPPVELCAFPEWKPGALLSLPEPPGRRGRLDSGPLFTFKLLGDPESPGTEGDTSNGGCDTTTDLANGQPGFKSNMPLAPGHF
Text: Species heterogeneity of hepatic α1A-, α1B-, and α1C-subtypes. Biochem Biophys Res Commun. 186:760-7676 1992]. […] Prazosin is used as positive control.

human α1D receptor = molecular target: T2, human α1D receptor (Homo sapiens, UniProt P25100); test: radioligand binding to adrenergic receptor α1D ([3H] Prazosin); settings: 10 μM ligand
T2 construct: expressed in transfected cells; host or cells: HEK-293
T2 sequence (P25100 1-572): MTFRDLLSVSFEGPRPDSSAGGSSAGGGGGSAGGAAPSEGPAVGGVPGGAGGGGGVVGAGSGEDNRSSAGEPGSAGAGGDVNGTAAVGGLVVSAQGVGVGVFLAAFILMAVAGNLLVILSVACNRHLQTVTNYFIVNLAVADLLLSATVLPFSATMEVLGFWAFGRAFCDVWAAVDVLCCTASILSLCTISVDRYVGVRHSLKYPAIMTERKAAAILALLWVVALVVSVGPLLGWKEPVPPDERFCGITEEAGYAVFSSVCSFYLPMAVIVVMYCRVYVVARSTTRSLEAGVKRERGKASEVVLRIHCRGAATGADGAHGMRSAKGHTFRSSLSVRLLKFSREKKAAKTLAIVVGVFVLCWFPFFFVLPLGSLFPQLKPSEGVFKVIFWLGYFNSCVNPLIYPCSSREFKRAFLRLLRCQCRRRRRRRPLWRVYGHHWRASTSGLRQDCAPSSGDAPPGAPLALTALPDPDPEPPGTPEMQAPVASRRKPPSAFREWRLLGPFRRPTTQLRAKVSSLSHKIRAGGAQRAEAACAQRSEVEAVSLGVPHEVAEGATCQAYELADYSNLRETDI
Text: 6-C. […] For this purpose sDNA of human α1D receptor is expressed in HEK-293 cells, as it was described in [T L Theroux, T A Esbenshade, R D Peavy and K P Minneman. Coupling efficiencies of human alpha 1-adrenergic receptor subtypes: titration of receptor density and responsiveness with inducible and repressible expression vectors. Mol. Pharmacol.; 50: 1376-1387, 1996]. […] Prazosin is used as positive control.

human D2S receptor = molecular target: T3, human D2S receptor (Homo sapiens, UniProt P14416); test: radioligand binding to dopamine receptor D2S ([3H] Spiperone); settings: 10 μM ligand
T3 construct: expressed in transfected cells; host or cells: CHO
Text: 7-C. […] For this purpose sDNA of human D2S receptor is expressed in CHO cells, as described in [Hayes G, Biden T J, Selbie L A and Shine J, Structural subtypes of the dopamine D2 receptor are functionally distinct. […] Mol. Endocrinol. […] Mol. Endocrinol. […] Spiperone is used as positive control.

human D3 receptor = molecular target: T4, human D3 receptor (Homo sapiens, UniProt P35462); test: radioligand binding to dopamine receptor D3 ([3H] Spiperone); settings: 10 μM ligand
T4 construct: expressed in transfected cells; host or cells: CHO
Text: For this purpose sDNA of human D3 receptor is expressed in CHO cells, as it was described in [Sokoloff P, Giros B, Martres M-P, Bouthenet M-L and Schwartz J-C. Molecular cloning and characterization of novel dopamine receptor (D3) as target for neuroleptics. Nature. […] Molecular cloning and characterization of novel dopamine receptor (D3) as target for neuroleptics. Nature. […] Spiperone is used as positive control.

human H1 receptor = molecular target: T5, human H1 receptor (Homo sapiens, UniProt P35367); test: radioligand binding to histamine receptor H1 ([3H] Pyrilamine); settings: 10 μM ligand
T5 construct: expressed in transfected cells; host or cells: CHO-K1
Text: Biochem Biophys Res Comm. 197(3): 1601-1608, 1993]. […] Biochem Biophys Res Comm. 197(3): 1601-1608, 1993].
Pyrilamine is used as positive control.

human H2 receptor = molecular target: T6, human H2 receptor (Homo sapiens, UniProt P25021); test: radioligand binding to histamine receptor H2 ([125I] Aminopotentidine); settings: 10 μM ligand
T6 construct: expressed in transfected cells; host or cells: CHO-K1
Text: Proc Natl Acad Sci USA. 87(5): 1658-1662, 1990]. […] Proc Natl Acad Sci USA. 87(5): 1658-1662, 1990]. […] Tiotidine is used as positive control.

recombinant human 5-HT1A = molecular target: T7, recombinant human 5-HT1A (Homo sapiens, UniProt P08908); test: radioligand binding to serotonin receptor 5-HT1A ([3H] 8-OH-DPAT); settings: ligand concentration 1 μM
T7 construct: expressed in transfected cells; host or cells: CHO
T7 sequence (P08908 1-422): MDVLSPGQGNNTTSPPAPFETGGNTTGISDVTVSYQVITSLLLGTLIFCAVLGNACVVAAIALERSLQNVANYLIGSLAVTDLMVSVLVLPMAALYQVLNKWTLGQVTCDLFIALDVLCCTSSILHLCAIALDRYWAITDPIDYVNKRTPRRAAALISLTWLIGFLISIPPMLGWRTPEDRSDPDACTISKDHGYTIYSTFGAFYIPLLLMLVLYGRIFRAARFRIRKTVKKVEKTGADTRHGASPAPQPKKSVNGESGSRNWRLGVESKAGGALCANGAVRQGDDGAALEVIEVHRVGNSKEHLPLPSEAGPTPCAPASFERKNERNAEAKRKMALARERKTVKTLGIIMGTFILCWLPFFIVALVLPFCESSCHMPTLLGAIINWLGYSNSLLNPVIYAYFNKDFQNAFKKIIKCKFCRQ
Text: J Pharmacol Exp Ther. 306(1): 301-309, 2003]. […] Metergoline is used as positive control.

[1] = molecular target: T8, recombinant human 5-HT6 receptor (Homo sapiens, UniProt P50406); test: radioligand binding to serotonin receptor 5-HT6 ([3H] Lysergic acid diethylamide)
T8 construct: expressed in transfected cells; host or cells: HeLa
Text: Mol. Pharmacol. 43:320-327, 1993]. […] Methiothepin is used as positive control.

human D4.2 receptor = molecular target: T9, human D4.2 receptor (Homo sapiens, UniProt P21917, DEL265-296); test: radioligand binding to dopamine receptor D4.2 ([3H] Spiperone); settings: 10 μM ligand
T9 sequence (P21917 with tags, fused parts or gaps DEL265-296): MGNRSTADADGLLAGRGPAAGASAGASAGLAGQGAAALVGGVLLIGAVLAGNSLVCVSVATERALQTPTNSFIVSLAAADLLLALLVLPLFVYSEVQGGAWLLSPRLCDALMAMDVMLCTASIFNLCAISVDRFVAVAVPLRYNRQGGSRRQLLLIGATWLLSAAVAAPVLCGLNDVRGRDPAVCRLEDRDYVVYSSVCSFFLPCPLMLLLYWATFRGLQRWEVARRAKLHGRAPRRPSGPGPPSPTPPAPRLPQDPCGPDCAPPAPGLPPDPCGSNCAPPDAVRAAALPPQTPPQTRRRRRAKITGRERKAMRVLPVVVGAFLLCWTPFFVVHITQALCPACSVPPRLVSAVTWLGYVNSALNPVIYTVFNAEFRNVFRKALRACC
Procedure: Screening of the disclosed compounds for potential ability to interact with dopamine receptor D4.2 is carried out by method of radioligand binding. […] From the cells transfected in this way membrane species are prepared by homogenization of these cells in glass homogenizer with the subsequent separation of plasmatic membranes from cell nuclei, mitochondrias and cell wreckages by differential centrifugation. […] After incubation samples are filtered in vacuo on glass-microfiber filters G/F (Millipor, USA), filters are washed three times with cold solution of medium and radioactivity is measured by scintillation counter MicroBeta 340 (Perkin Elmer, USA). Nonspecific binding which makes up 10% of the overall binding is determined by incubation of membrane species with radioligand in the presence of 10 μM of Haloperidol.
Spiperone is used as positive control. Tested compounds' binding to the receptor is determined by their ability to displace radioligand and expressed in percent of displacement (% I). Values of % I are calculated according to the following equation:
wherein: TA—is overall radioactivity in the presence of radioligand only, CA—is radioactivity in the presence of radioligand and tested compound and NA—is radioactivity in the presence of radioligand and Haloperidol (10 μM).

[2] = molecular target: T10, recombinant human 5-HT2A receptor (Homo sapiens, UniProt P28223); test: radioligand binding to serotonin receptor 5-HT2A ([3H] Ketanserin)
T10 construct: expressed in transfected cells; host or cells: CHO-K1
Procedure: 9-C. […] J. Neurochem. […] Ketanserin is used as positive control. […] Values of % I is calculated according to the following equation: […]

[3] = molecular target: T11, recombinant human 5-HT2B receptor (Homo sapiens, UniProt P41595); test: radioligand binding to serotonin receptor 5-HT2B ([3H] Lysergic acid diethylamide)
T11 construct: expressed in transfected cells; host or cells: CHO-K1
Procedure: Screening of the disclosed compounds for potential ability to interact with serotonin receptor 5-HT2A is carried out by method of radioligand binding. For this purpose membrane species are prepared from CHO-K1 cells comprising recombinant human 5-HT2B receptor by homogenization of recombinant cells in glass homogenizer with the subsequent separation of plasmatic membranes from cell nuclei, mitochondrias and cell wreckages by differential centrifugation. […] After incubation the samples are filtered in vacuo on glass-microfiber filters G/F (Millipor, USA), filters are washed three times with cold solution of medium and radioactivity is measured by scintillation counter MicroBeta 340 (Perkin Elmer, USA). […] Ketanserin is used as positive control. The tested compounds' binding to the receptor is determined by their ability to displace the radioligand and is expressed in percent of displacement (% I). Values of % I are calculated according to the following equation:
wherein: TA—is the overall radioactivity in the presence of radioligand only, CA—is the radioactivity in the presence of radioligand and tested compound and NA—is the radioactivity in the presence of radioligand and Serotonin (10 μM).

human 5-HT7 receptor = molecular target: T12, human 5-HT7 receptor (Homo sapiens, UniProt P34969); test: radioligand binding to serotonin receptor 5-HT7 ([3H] Lysergic acid diethylamide); settings: ligand concentration 1 μM
T12 construct: expressed in transfected cells; host or cells: CHO
Text: For this purpose sDNA of human 5-HT7 receptor is expressed in CHO cells as it was described in [Shen Y, Monsma F J Jr, Metcalf M A, Jose P A, Hamblin M W, and Sibley DR. […] J. Biol. Chem. 1993, 268, 18200-18204]. […] J. Pharmacol. Exp. Ther. 1994, 268:1403-1410]. […] Methiothepin is used as positive control.

imidazoline receptor I2 = test: radioligand binding to imidazoline receptor I2 ([3H] Idazoxan); parameters: species or system rat; settings: 10 μM ligand
Procedure: Determination of investigated compounds' binding to imidazoline I2 receptor is carried out according to the method described in [Brown C M, MacKinnon A C, McGrath J C, Spedding M and Kilpatrick A T, a2-Adrenoceptor subtypes and imidazoline-like binding in the rat brain. Br J. Pharmacol. 99:803-809, 1990]. […] Idazoxan is used as positive control.

T8 sequence (P50406 whole entry): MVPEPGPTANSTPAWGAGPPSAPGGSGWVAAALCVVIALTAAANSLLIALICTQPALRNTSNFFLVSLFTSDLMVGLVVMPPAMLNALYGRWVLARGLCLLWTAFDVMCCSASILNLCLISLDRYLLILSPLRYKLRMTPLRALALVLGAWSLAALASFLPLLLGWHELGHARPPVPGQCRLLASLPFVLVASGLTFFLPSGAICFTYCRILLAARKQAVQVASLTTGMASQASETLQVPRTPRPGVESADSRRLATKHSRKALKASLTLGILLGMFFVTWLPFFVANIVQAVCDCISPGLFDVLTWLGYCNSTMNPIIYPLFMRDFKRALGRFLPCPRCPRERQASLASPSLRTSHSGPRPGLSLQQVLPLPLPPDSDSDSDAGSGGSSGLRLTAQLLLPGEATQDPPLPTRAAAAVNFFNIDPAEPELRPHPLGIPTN
T11 sequence (P41595 whole entry): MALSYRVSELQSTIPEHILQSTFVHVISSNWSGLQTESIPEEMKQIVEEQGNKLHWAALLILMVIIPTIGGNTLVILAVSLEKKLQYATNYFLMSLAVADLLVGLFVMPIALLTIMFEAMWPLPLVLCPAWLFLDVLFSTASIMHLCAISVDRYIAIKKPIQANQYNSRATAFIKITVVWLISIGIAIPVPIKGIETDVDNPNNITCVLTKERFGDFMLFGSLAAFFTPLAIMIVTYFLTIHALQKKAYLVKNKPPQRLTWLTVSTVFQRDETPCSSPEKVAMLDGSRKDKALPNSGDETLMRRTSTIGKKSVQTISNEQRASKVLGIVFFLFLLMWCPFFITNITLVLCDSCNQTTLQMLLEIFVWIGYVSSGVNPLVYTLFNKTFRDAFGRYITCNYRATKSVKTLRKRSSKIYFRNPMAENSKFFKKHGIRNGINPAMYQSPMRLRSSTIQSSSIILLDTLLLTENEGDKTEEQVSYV
T10 sequence (P28223 whole entry): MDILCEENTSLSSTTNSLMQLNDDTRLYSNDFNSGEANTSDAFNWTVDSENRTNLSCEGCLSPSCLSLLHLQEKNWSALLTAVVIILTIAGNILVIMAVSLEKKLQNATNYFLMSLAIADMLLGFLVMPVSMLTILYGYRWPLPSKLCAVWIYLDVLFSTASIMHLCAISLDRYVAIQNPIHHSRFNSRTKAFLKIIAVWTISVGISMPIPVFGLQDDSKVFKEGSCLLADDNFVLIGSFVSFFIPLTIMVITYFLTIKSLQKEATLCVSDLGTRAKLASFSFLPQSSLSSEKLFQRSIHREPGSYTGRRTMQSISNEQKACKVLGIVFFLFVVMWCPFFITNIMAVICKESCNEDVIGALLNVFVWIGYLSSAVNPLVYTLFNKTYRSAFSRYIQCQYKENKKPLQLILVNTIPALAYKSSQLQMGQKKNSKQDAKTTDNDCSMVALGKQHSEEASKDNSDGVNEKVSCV
T6 sequence (P25021 whole entry): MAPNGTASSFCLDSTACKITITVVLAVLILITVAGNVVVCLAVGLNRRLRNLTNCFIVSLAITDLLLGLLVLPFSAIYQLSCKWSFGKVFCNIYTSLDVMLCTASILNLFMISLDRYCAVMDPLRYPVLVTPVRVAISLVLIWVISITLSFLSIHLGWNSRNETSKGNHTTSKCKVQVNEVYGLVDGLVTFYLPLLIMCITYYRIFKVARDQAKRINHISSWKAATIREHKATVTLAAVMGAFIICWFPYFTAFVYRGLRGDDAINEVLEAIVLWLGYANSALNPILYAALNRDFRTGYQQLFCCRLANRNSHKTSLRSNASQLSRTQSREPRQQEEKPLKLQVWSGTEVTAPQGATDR
T5 sequence (P35367 whole entry): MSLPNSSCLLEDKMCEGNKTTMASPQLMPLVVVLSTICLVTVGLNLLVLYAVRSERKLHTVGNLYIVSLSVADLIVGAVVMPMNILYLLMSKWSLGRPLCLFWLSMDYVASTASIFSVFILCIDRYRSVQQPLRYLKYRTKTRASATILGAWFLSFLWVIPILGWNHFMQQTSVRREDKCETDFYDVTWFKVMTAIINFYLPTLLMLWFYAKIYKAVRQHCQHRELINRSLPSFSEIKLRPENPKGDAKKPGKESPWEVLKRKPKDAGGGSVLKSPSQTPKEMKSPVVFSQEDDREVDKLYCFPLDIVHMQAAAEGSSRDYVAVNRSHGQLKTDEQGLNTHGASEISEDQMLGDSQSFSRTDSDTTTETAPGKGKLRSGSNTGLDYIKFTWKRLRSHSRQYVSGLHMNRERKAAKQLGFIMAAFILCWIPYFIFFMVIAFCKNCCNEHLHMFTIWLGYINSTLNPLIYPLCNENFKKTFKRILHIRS
T4 sequence (P35462 whole entry): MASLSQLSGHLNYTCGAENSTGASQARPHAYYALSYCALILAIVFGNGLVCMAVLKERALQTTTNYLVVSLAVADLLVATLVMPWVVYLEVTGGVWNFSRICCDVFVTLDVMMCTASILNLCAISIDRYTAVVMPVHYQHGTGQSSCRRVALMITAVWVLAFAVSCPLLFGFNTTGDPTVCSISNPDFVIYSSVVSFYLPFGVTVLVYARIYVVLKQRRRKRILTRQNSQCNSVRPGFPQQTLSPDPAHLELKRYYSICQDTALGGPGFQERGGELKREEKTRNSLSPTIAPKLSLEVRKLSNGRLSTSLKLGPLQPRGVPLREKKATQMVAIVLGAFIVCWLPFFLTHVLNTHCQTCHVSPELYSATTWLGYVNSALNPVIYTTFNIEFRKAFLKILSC
T12 sequence (P34969 whole entry): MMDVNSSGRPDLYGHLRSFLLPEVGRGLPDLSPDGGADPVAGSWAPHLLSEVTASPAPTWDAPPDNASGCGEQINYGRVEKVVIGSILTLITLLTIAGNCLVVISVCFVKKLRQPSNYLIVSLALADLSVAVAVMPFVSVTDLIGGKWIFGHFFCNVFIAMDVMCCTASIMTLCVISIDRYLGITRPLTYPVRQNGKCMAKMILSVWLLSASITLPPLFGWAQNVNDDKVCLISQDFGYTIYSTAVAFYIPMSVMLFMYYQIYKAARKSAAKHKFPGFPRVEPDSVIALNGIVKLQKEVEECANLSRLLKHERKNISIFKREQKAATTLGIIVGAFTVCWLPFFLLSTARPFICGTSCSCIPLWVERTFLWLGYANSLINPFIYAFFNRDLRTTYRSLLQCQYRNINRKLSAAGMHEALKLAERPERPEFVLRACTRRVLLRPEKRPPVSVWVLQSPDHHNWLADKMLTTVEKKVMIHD
T3 sequence (P14416 1-414 isoform P14416-2): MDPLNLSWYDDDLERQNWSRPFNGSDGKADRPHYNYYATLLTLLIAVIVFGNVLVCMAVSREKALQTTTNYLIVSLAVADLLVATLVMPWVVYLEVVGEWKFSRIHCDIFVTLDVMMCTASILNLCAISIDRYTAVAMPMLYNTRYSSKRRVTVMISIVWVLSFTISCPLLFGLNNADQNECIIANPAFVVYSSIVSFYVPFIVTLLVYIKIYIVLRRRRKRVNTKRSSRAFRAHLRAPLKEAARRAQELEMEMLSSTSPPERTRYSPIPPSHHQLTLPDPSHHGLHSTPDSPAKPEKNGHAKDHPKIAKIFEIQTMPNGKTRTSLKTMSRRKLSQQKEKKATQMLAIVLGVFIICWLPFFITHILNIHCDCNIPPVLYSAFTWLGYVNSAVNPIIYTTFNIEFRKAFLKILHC

Row | SMILES | α-Adrenoceptor α1B, % inhibition (adrenergic receptor α1B) [%] | α-Adrenoceptor α1D, % inhibition (human α1D receptor) [%] | Dopamine receptor D2S, % inhibition (human D2S receptor) [%] | Dopamine receptor D3, % inhibition (human D3 receptor) [%] | Histamine receptor H1, % inhibition (human H1 receptor) [%] | Histamine receptor H2, % inhibition (human H2 receptor) [%] | inhibition at 1 µM (recombinant human 5-HT1A) [%] | inhibition at 1 µM ([1]; ligand concentration 1 μM, read-out: 5-HT6 % inhibition) [%] | Dopamine receptor D4.2, % inhibition (human D4.2 receptor) [%] | IC50 [2] [nM] | Ki [2] [nM] | nH 5-HT2A [2] | nH 5-HT2B [3] | IC50 ([3]; read-out: IC50 5-HT2B) [nM] | Ki ([3]; read-out: Ki 5-HT2B) [nM] | IC50 [1] [nM] | Ki [1] [nM] | nH 5-HT6 [1] | inhibition at 1 µM (human 5-HT7 receptor) [%] | imidazoline I2 receptor % inhibition (imidazoline receptor I2) [%]
1 | Cc1ccc2c(c1)[C@H]1CN(C)CCC[C@@H]1N2CCc1ccc(C)nc1 (relative stereo) [1.6.2(11)] | 94 | 90 | 31 | 36 | 100 | 76 | 55 | 93 | 6 | – | – | – | – | – | – | – | – | – | – | –
2 | Cc1ccc(S(=O)(=O)n2c3c(c4cc(C)ccc42)CN(C)CCC3)cc1.Cl [1.8.1(3)•HCl] | – | 55 | – | – | 95 | 82 | – | – | – | 22.5 | 6.43 | 1.01 | 0.784 | 319 | 203 | 34.8 | 15.9 | 1.07 | 99 | 17
